Data taken from patent US10899754B2, “Modulators of indoleamine 2,3-dioxygenase” (GLAXOSMITHKLINE INTELLECTUAL PROPERTY DEVELOPMENT LIMITED, priority 2016, dated 2021).

Columns and labels:
[1] = tested on: human peripheral blood mononuclear cells (PBMC); assay: PBMC cytotoxicity assay (CellTiter-Glo); type: cell-based; settings: 2 days, pCC50
Protocol: (§1) Compounds of the present invention were tested via high-throughput cellular assays utilizing detection of kynurenine via mass spectrometry and cytotoxicity as end-points. For the mass spectrometry and cytotoxicity assays, human peripheral blood mononuclear cells (PBMC) (PB003F; AllCells®, Alameda, Calif.) were stimulated with human interferon-γ (IFN-γ) (Sigma-Aldrich Corporation, St. Louis, Mo.) and lipopolysaccharide from Salmonella minnesota (LPS) (Invivogen, San Diego, Calif.) to induce the expression of indoleamine 2, 3-dioxygenase (IDO1). Compounds with IDO1 inhibitory properties decreased the amount of kynurenine produced by the cells via the tryptophan catabolic pathway. Cellular toxicity due to the effect of compound treatment was measured using CellTiter-Glo® reagent (CTG) (Promega Corporation, Madison, Wis.), which is based on luminescent detection of ATP, an indicator of metabolically active cells.
(§2) In preparation for the assays, test compounds were serially diluted 3-fold in DMSO from a typical top concentration of 1 mM or 5 mM and plated at 0.5 μL in 384-well, polystyrene, clear bottom, tissue culture treated plates with lids (Greiner Bio-One, Kremsmünster, Austria) to generate 11-point dose response curves. Low control wells (0% kynurenine or 100% cytotoxicity) contained either 0.5 μL of DMSO in the presence of unstimulated (−IFN-γ/−LPS) PBMCs for the mass spectrometry assay or 0.5 μL of DMSO in the absence of cells for the cytotoxicity assay, and high control wells (100% kynurenine or 0% cytotoxicity) contained 0.5 μL of DMSO in the presence of stimulated (+IFN-γ/+LPS) PBMCs for both the mass spectrometry and cytotoxicity assays.
(§3) Frozen stocks of PBMCs were washed and recovered in RPMI 1640 medium (Thermo Fisher Scientific, Inc., Waltham, Mass.) supplemented with 10% v/v heat-inactivated fetal bovine serum (FBS) (Thermo Fisher Scientific, Inc., Waltham, Mass.), and 1× penicillin-streptomycin antibiotic solution (Thermo Fisher Scientific, Inc., Waltham, Mass.). The cells were diluted to 1,000,000 cells/mL in the supplemented RPMI 1640 medium. 50 μL of either the cell suspension, for the mass spectrometry assay, or medium alone, for the cytotoxicity assay, were added to the low control wells, on the previously prepared 384-well compound plates, resulting in 50,000 cells/well or 0 cells/well respectively. IFN-γ and LPS were added to the remaining cell suspension at final concentrations of 100 ng/ml and 50 ng/ml respectively, and 50 μL of the stimulated cells were added to all remaining wells on the 384-well compound plates. The plates, with lids, were then placed in a 37° C., 5% CO2 humidified incubator for 2 days.
(§4) Following incubation, the 384-well plates were removed from the incubator and allowed to equilibrate to room temperature for 30 minutes. For the cytotoxicity assay, CellTiter-Glo® was prepared according to the manufacturer's instructions, and 40 μL were added to each plate well. After a twenty minute incubation at room temperature, luminescence was read on an EnVision® Multilabel Reader (PerkinElmer Inc., Waltham, Mass.). For the mass spectrometry assay, 10 μL of supernatant from each well of the compound-treated plates were added to 40 μL of acetonitrile, containing 10 μM of an internal standard for normalization, in 384-well, polypropylene, V-bottom plates (Greiner Bio-One, Kremsmünster, Austria) to extract the organic analytes. Following centrifugation at 2000 rpm for 10 minutes, 10 μL from each well of the acetonitrile extraction plates were added to 90 μL of sterile, distilled H2O in 384-well, polypropylene, V-bottom plates for analysis of kynurenine and the internal standard on the RapidFire 300 (Agilent Technologies, Santa Clara, Calif.) and 4000 QTRAP MS (SCIEX, Framingham, Mass.). MS data were integrated using Agilent Technologies' RapidFire Integrator software, and data were normalized for analysis as a ratio of kynurenine to the internal standard. […]

[2] = target: indoleamine 2, 3-dioxygenase (IDO1) (Homo sapiens, UniProt P14902); assay: IDO1 PBMC RapidFire MS assay (kynurenine detection by mass spectrometry); type: cell-based; design: to induce the expression of indoleamine 2, 3-dioxygenase (IDO1); host or cells: human PBMC stimulated with IFN-gamma and LPS; settings: human PBMC stimulated with IFN-γ and LPS, 2 days, pIC50, read-out: PBMC PXC50 (converted)
indoleamine 2, 3-dioxygenase (IDO1), sequence (P14902 whole entry): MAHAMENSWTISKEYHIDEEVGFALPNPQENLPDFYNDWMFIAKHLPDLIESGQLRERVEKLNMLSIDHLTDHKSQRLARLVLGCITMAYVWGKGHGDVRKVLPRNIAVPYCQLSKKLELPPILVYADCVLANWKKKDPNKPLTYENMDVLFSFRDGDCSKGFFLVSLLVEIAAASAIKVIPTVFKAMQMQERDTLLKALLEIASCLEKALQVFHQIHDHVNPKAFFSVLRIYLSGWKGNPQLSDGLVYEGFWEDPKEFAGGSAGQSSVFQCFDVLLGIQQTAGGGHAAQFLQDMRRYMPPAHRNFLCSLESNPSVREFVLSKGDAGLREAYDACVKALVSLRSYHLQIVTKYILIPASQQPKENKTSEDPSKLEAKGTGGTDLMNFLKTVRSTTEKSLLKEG
Protocol: IDO1 PBMC RapidFire MS Assay
as §1, §2, §3, §4

| Compound | PBMC TOX PXC50 [1] | IC50 [2] |
| --- | --- | --- |
| CC(C)CN(c1ccc([C@H](C)CC(=O)O)cc1Nc1nc(C(C)C)ns1)C1CCOCC1 [Example 26, (R)-3-(4-(isobutyl(tetrahydro-2H-pyran-4-yl)amino)-3-((3-isopropyl-1,2,4-thiadiazol-5-yl)amino)phenyl)butanoic Acid] | <5 | 3.16 nM |
| CC(C)CN(c1ccc([C@H](C)CC(=O)O)cc1Nc1nc(C(F)(F)F)ns1)C1CCN(C(=O)C2CC2)CC1 [Example 64, (R)-3-(4-((1-(cyclopropanecarbonyl)piperidin-4-yl) (isobutyl)amino)-3-((3-(trifluoromethyl)-1,2,4-thiadiazol-5-yl)amino)phenyl)butanoic Acid] | <5 | 1 nM |
| COCc1nc(Nc2cc([C@H](C)CC(=O)O)ccc2N(CC(C)C)[C@H]2CC[C@@H](OC)CC2)n[nH]1 (racemic) [example 243, (3RS)-3-(3-{[5-(methoxymethyl)-1H-1,2,4-triazol-3-yl]amino}-4-[(2-methylpropyl)[(1rs&,4rs&)-4-methoxycyclohexyl]ami-no]phenyl)butanoic acid] | <5 | 31.6 nM |
| CC(C)CN(c1ccc([C@H](C)CC(=O)NO)cc1Nc1nc(C(F)(F)F)ns1)C1CCOCC1 [example 233, (3R)-N-hydroxy-3-{4-[(2-methylpropyl)(oxan-4-yl)amino]-3-{[3-(trifluoromethyl)-1,2,4-thiadiazol-5-yl]amino}phenyl}butanoic amide] | <5 | 20 nM |
| CC(C)CN(c1ccc([C@H](C)CC(=O)O)cc1Nc1nc(C(F)(F)F)c[nH]1)C1CCOCC1 [Example 114, (R)-3-(4-(isobutyl(tetrahydro-2H-pyran-4-yl)amino)-3-((4-(trifluoromethyl)-1H-imidazol-2-yl)amino)phenyl)butanoic Acid] | <5 | 15.8 nM |
| CC(C)CN(c1ccc([C@H](C)CC(=O)O)cc1Nc1n[nH]c(C(N)=O)n1)C1CCCCC1 [Example 84, (R)-3-(3-((5-carbamoyl-1H-1,2,4-triazol-3-yl)amino)-4-(cyclohexyl(isobutyl)amino)phenyl)butanoic Acid] | <5 | 7.94 nM |
| CC(C)CN(CCCCCN=[N+]=[N-])c1ccc([C@H](C)CC(=O)O)cc1Nc1nc(C(F)(F)F)ns1 [Example 94, (R)-3-(4-((5-azidopentyl) (isobutyl)amino)-3-((3-(trifluoromethyl)-1,2,4-thiadiazol-5-yl)amino)phenyl)butanoic Acid] | <4.3 | 1.26 nM |
| CC(C)CN(c1ccc([C@H](C)CC(=O)O)cc1Nc1ccc(Cl)c(F)n1)C1CCOCC1 [Example 14, (R)-3-(3-((5-chloro-6-fluoropyridin-2-yl)amino)-4-(isobutyl(tetrahydro-2H-pyran-4-yl)amino)phenyl)butanoic acid] | <5 | 1.26 nM |
| CC[C@H](CC(=O)O)c1ccc(N(CC(C)C)C2CCOCC2)c(Nc2n[nH]c(C3CC3)n2)c1 [Example 41, (R)-3-(3-((5-cyclopropyl-1H-1,2,4-triazol-3-yl)amino)-4-(isobutyl(tetrahydro-2H-pyran-4-yl)amino)phenyl)pentanoic Acid] | <5 | 7.94 nM |
| CC(C)CN(c1ccc([C@H](C)CC(=O)O)cc1Nc1ccc(C#N)nn1)C1CCOCC1 [Example 24, (R)-3-(3-((6-cyanopyridazin-3-yl)amino)-4-(isobutyl(tetrahydro-2H-pyran-4-yl)amino)phenyl)butanoic Acid] | <5 | 2.51 nM |
| CO[C@H]1CC[C@@H](N(CC(C)C)c2ccc([C@H](C)CC(=O)O)cc2Nc2nc(Cl)ns2)CC1 [Example 48, (R)-3-(3-((3-chloro-1,2,4-thiadiazol-5-yl)amino)-4-(isobutyl((1s,4S)-4-methoxycyclohexyl)amino)phenyl)butanoic Acid] | <5 | 1 nM |
| CC(C)CN(CCCCCNC(=O)c1ccc(C2(C(F)(F)F)N=N2)cc1)c1ccc([C@H](C)CC(=O)O)cc1Nc1nc(C(F)(F)F)ns1 [example 255, (3R)-3-{4-[(2-methylpropyl)[5-({4-[3-(trifluoromethyl)-3H-diazirin-3-yl]phenyl}formamido)pentyl]amino]-3-{[3-(trifluoromethyl)-1,2,4-thiadiazol-5-yl]amino}phenyl}butanoic acid] | <4.3 | 20 nM |
| CC(C)CN(c1ccc([C@H](C)CC(=O)O)cc1Nc1ncc(C(N)=O)cn1)C1CCOCC1 [example 248, (3R)-3-{3-[(5-carbamoylpyrimidin-2-yl)amino]-4-[(2-methylpropyl)(oxan-4-yl)amino]phenyl}butanoic acid] | <5 | > 10000 nM |
| CC(C)CN(c1ccc([C@H](C)CC(=O)O)cc1Nc1ccc(C(N)=O)cn1)C1CCOCC1 [example 240, (3R)-3-{3-[(5-carbamoylpyridin-2-yl)amino]-4-[(2-methylpropyl)(oxan-4-yl)amino]phenyl}butanoic acid] | <5 | 2510 nM |
| COC(=O)c1c[nH]c(Nc2cc([C@H](C)CC(=O)O)ccc2N(CC(C)C)C2CCCCC2)n1 [Example 77, (R)-3-(4-(cyclohexyl(isobutyl)amino)-3-((4-(methoxycarbonyl)-1H-imidazol-2-yl)amino)phenyl)butanoic Acid] | <5 | 1.58 nM |
| CO[C@H]1CC[C@H](N(CC(C)C)c2ccc([C@H](C)CC(=O)O)cc2Nc2ccc(Cl)cn2)CC1 [Example 55, (R)-3-(3-((5-chloropyridin-2-yl)amino)-4-(isobutyl((1r,4R)-4-methoxycyclohexyl)amino)phenyl)butanoic Acid] | <5 | 3.16 nM |
| CC(C)CN(c1ccc([C@H](C)CC(=O)O)cc1Nc1ncc(Cl)cn1)C1CCOCC1 [example 231, (3R)-3-{3-[(5-chloropyrimidin-2-yl)amino]-4-[(2-methylpropyl)(oxan-4-yl)amino]phenyl}butanoic acid] | <5 | 25.1 nM |
| CC(C)CN(c1ccc([C@H](C)CC(=O)O)cc1Nc1nc(Cl)ns1)C1CCOCC1 [Example 25, (R)-3-(3-((3-chloro-1,2,4-thiadiazol-5-yl)amino)-4-(isobutyl(tetrahydro-2H-pyran-4-yl)amino)phenyl)butanoic Acid] | <5 | 3.16 nM |
| CC(C)CN(c1c(F)cc([C@H](C)CC(=O)O)cc1Nc1ccc(Cl)cn1)C1CCOCC1 [Example 35, (R)-3-(3-((5-chloropyridin-2-yl)amino)-5-fluoro-4-(isobutyl(tetrahydro-2H-pyran-4-yl)amino)phenyl)butanoic Acid] | <5 | 0.501 nM |
| COC(=O)c1c[nH]c(Nc2cc([C@H](C)CC(=O)O)ccc2N(CC(C)C)[C@H]2CC[C@@H](OC)CC2)n1 [Example 46, (R)-3-(4-(isobutyl((1s,4s)-4-methoxycyclohexyl)amino)-3-((4-(methoxycarbonyl)-1H-imidazol-2-yl)amino)phenyl)butanoic Acid] | 5.2 | 1.58 nM |
| CC(C)CN(CC(C)C)c1ccc(C(C)CC(=O)O)cc1Nc1nnn(C)n1 (stereo not drawn) [example 251, 3-{4-[bis(2-methylpropyl)amino]-3-[(2-methyl-2H-1,2,3,4-tetrazol-5-yl)amino]phenyl}butanoic acid] | <5 | 2000 nM |
